Ends that are not written are not given here.
How the values were obtained:
Assay type in all cases: binding
[1] = target: SHANK1 PDZ (Homo sapiens, UniProt Q9Y566); assay: Holdup assay; details: composite holdup affinity; 0.00=below quantification threshold; read-out: COMP pKd (converted)
[2] = target: AHNAK1 PDZ (Homo sapiens, UniProt Q09666); assay: Holdup assay; details: composite holdup affinity; 0.00=below quantification threshold; read-out: COMP pKd (converted)
[3] = target: SNTG1 PDZ (Homo sapiens, UniProt Q9NSN8); assay: Holdup assay; details: composite holdup affinity; 0.00=below quantification threshold; read-out: COMP pKd (converted)
Chain of SNTG1 PDZ (Q9NSN8 57-140 limits assumed): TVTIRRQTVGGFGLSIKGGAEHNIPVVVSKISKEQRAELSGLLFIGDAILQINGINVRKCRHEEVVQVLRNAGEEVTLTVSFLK

[4] = target: DLG3_2 PDZ (Homo sapiens, UniProt Q92796); assay: Holdup assay; details: composite holdup affinity; 0.00=below quantification threshold; read-out: COMP pKd (converted)
Chain of DLG3_2 PDZ (Q92796 226-311 limits assumed): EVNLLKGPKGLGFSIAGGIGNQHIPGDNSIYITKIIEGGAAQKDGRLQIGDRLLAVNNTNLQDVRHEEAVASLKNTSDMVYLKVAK

[5] = target: LIN7C PDZ (Homo sapiens, UniProt Q9NUP9); assay: Holdup assay; details: composite holdup affinity; 0.00=below quantification threshold; read-out: COMP pKd (converted)
Chain of LIN7C PDZ (Q9NUP9 93-175 limits assumed): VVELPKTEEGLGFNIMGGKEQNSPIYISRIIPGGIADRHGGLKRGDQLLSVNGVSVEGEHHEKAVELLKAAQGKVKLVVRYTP

[6] = target: MAGI1_3 PDZ (Homo sapiens, UniProt Q96QZ7); assay: Holdup assay; details: sheet PPI_convert; read-out: affinity to PDZ MAGI1_3 (converted)
Chain of MAGI1_3 PDZ (Q96QZ7 643-721 limits assumed): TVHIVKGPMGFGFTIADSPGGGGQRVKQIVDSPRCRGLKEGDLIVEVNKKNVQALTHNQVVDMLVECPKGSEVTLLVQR

[7] = target: DLG2_1 PDZ (Homo sapiens, UniProt Q15700); assay: Holdup assay; details: sheet PPI_convert; read-out: affinity to PDZ DLG2_1 (converted)
Chain of DLG2_1 PDZ (Q15700 98-184): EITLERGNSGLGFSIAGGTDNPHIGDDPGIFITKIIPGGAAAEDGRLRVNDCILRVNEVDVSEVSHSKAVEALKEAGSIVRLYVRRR

[8] = target: DLG1_2 PDZ (Homo sapiens, UniProt Q12959); assay: Holdup assay; details: composite holdup affinity; 0.00=below quantification threshold; read-out: COMP pKd (converted)
Chain of DLG1_2 PDZ (Q12959 319-405 limits assumed): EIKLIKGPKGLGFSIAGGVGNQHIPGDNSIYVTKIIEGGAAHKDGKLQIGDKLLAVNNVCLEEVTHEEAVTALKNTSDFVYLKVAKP

[9] = target: MAGIX PDZ (Homo sapiens, UniProt Q9H6Y5); assay: Holdup assay; details: sheet PPI_convert; read-out: affinity to PDZ MAGIX (converted)
Chain of MAGIX PDZ (Q9H6Y5 125-209): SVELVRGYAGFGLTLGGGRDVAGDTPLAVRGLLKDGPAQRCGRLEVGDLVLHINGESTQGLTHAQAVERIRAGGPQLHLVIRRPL
Description: Supplement 41467_2022_33018_MOESM4_ESM.xlsx, sheet "PPI_convert" | column: MAGIX

[10] = target: GRIP2_4 PDZ (Homo sapiens, UniProt Q9C0E4); assay: Holdup assay; details: composite holdup affinity; 0.00=below quantification threshold; read-out: COMP pKd (converted)
Chain of GRIP2_4 PDZ (Q9C0E4 456-545 limits assumed): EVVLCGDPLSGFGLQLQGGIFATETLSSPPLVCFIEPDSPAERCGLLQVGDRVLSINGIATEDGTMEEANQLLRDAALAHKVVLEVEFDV

[11] = target: GRIP2_5 PDZ (Homo sapiens, UniProt Q9C0E4); assay: Holdup assay; details: composite holdup affinity; 0.00=below quantification threshold; read-out: COMP pKd (converted)
Chain of GRIP2_5 PDZ (Q9C0E4 557-641 limits assumed): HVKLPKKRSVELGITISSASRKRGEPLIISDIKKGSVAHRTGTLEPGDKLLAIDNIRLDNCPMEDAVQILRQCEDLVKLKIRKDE

[12] = target: IL16_1 PDZ (Homo sapiens, UniProt Q14005); assay: Holdup assay; details: composite holdup affinity; 0.00=below quantification threshold; read-out: COMP pKd (converted)
Chain of IL16_1 PDZ (Q14005 216-302 limits assumed): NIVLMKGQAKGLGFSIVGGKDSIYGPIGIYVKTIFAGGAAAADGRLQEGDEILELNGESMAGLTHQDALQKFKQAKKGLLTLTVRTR

[13] = target: MPP1 PDZ (Homo sapiens, UniProt Q00013); assay: Holdup assay; details: sheet PPI_convert; read-out: affinity to PDZ MPP1 (converted)
Chain of MPP1 PDZ (Q00013 71-152 limits assumed): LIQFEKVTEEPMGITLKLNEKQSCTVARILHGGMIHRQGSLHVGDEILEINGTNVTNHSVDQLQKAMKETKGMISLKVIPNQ

[14] = target: GIPC1 PDZ (Homo sapiens, UniProt O14908); assay: Holdup assay; details: sheet PPI_convert; read-out: affinity to PDZ GIPC1 (converted)
Chain of GIPC1 PDZ (O14908 133-213 limits assumed): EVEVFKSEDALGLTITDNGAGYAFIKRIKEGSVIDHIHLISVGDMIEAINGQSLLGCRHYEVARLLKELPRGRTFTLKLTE
Description: Supplement 41467_2022_33018_MOESM4_ESM.xlsx, sheet "PPI_convert" | column: GIPC1

[15] = target: FRMPD2_2 PDZ (Homo sapiens, UniProt Q68DX3); assay: Holdup assay; details: composite holdup affinity; 0.00=below quantification threshold; read-out: COMP pKd (converted)
Chain of FRMPD2_2 PDZ (Q68DX3 950-1035 limits assumed): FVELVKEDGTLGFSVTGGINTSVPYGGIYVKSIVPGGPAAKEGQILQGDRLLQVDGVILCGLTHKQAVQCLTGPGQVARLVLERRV

[16] = target: DLG4_2 PDZ (Homo sapiens, UniProt P78352); assay: Holdup assay; details: composite holdup affinity; 0.00=below quantification threshold; read-out: COMP pKd (converted)
Chain of DLG4_2 PDZ (P78352 160-246 limits assumed): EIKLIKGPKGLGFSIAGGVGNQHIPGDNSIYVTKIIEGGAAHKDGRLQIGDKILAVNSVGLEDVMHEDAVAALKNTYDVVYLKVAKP

[17] = target: DLG4_3 PDZ (Homo sapiens, UniProt P78352); assay: Holdup assay; details: composite holdup affinity; 0.00=below quantification threshold; read-out: COMP pKd (converted)
Chain of DLG4_3 PDZ (P78352 313-393 limits assumed): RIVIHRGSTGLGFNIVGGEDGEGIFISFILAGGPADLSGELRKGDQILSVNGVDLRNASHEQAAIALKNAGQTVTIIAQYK

[18] = target: MAGI1_5 PDZ (Homo sapiens, UniProt Q96QZ7); assay: Holdup assay; details: sheet PPI_convert; read-out: affinity to PDZ MAGI1_5 (converted)
Chain of MAGI1_5 PDZ (Q96QZ7 970-1066 limits assumed): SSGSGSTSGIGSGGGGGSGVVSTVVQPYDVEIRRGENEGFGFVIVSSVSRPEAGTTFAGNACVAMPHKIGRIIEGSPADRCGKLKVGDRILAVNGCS

[19] = target: GIPC2 PDZ (Homo sapiens, UniProt Q8TF65); assay: Holdup assay; details: composite holdup affinity; 0.00=below quantification threshold; read-out: COMP pKd (converted)
Chain of GIPC2 PDZ (Q8TF65 117-197 limits assumed): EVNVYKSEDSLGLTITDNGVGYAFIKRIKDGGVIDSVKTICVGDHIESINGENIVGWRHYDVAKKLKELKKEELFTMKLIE

[20] = target: LNX1_2 PDZ (Homo sapiens, UniProt Q8TBB1); assay: Holdup assay; details: composite holdup affinity; 0.00=below quantification threshold; read-out: COMP pKd (converted)
Chain of LNX1_2 PDZ (Q8TBB1 381-464 limits assumed): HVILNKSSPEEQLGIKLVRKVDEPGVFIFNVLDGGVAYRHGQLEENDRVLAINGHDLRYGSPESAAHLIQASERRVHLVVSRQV

[21] = target: MAGI1_2 PDZ (Homo sapiens, UniProt Q96QZ7); assay: biochemical; details: composite holdup affinity; 0.00=below quantification threshold; read-out: COMP pKd (converted)
Chain of MAGI1_2 PDZ (Q96QZ7 472-554 limits assumed): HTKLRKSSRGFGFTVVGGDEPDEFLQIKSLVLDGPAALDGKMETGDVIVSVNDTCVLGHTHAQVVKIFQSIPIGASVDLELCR

[22] = target: GOPC PDZ (Homo sapiens, UniProt Q9HD26); assay: Holdup assay; details: composite holdup affinity; 0.00=below quantification threshold; read-out: COMP pKd (converted)
[23] = target: MAGI2_4 PDZ (Homo sapiens, UniProt Q86UL8); assay: Holdup assay; details: composite holdup affinity; 0.00=below quantification threshold; read-out: COMP pKd (converted)
Chain of MAGI2_4 PDZ (Q86UL8 778-860 limits assumed): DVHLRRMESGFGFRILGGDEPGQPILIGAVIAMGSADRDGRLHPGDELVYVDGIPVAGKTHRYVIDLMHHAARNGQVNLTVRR

[24] = target: FRMPD3 PDZ (Homo sapiens, UniProt Q5JV73); assay: Holdup assay; details: composite holdup affinity; 0.00=below quantification threshold; read-out: COMP pKd (converted)
Chain of FRMPD3 PDZ (Q5JV73 21-98 limits assumed): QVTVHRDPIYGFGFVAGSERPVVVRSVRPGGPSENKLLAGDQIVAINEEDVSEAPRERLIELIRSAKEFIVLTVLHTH

[25] = target: MAGI2_6 PDZ (Homo sapiens, UniProt Q86UL8); assay: Holdup assay; details: composite holdup affinity; 0.00=below quantification threshold; read-out: COMP pKd (converted)
Chain of MAGI2_6 PDZ (Q86UL8 1147-1229 limits assumed): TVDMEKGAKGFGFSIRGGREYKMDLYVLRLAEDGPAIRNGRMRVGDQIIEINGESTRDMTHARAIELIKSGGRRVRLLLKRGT

[26] = target: T1, MAST2 PDZ (Homo sapiens, UniProt Q6P0Q8); assay: biochemical; details: composite holdup affinity; 0.00=below quantification threshold; read-out: COMP pKd (converted)
T1 sequence (Q6P0Q8 1104-1192 limits assumed): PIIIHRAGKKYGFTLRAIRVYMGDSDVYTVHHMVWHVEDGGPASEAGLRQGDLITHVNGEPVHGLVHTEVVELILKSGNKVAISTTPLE

[27] = target: DLG3_3 PDZ (Homo sapiens, UniProt Q92796); assay: Holdup assay; details: composite holdup affinity; 0.00=below quantification threshold; read-out: COMP pKd (converted)
Chain of DLG3_3 PDZ (Q92796 379-465 limits assumed): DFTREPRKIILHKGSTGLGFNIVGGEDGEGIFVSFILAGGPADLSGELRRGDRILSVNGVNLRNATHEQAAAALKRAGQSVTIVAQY

[28] = target: MAGI1_6 PDZ (Homo sapiens, UniProt Q96QZ7); assay: Holdup assay; details: sheet PPI_convert; read-out: affinity to PDZ MAGI1_6 (converted)
Chain of MAGI1_6 PDZ (Q96QZ7 1124-1206 limits assumed): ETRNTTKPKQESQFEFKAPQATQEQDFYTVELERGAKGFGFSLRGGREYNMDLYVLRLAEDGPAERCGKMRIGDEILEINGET

[29] = target: GRASP PDZ (Homo sapiens, UniProt Q7Z6J2); assay: Holdup assay; details: composite holdup affinity; 0.00=below quantification threshold; read-out: COMP pKd (converted)
Chain of GRASP PDZ (Q7Z6J2 101-190 limits assumed): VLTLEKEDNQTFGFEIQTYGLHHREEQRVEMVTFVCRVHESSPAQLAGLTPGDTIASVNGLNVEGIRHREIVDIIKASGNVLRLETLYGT

[30] = target: DVL2 PDZ (Homo sapiens, UniProt O14641); assay: Holdup assay; details: sheet PPI_convert; read-out: affinity to PDZ DVL2 (converted)
Chain of DVL2 PDZ (O14641 267-339 limits assumed): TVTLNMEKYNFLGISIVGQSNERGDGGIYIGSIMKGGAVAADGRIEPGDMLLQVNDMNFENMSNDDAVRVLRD

[31] = target: Inadl_5 PDZ (Homo sapiens, UniProt Q8NI35); assay: Holdup assay; details: composite holdup affinity; 0.00=below quantification threshold; read-out: COMP pKd (converted)
Chain of Inadl_5 PDZ (Q8NI35 686-772 limits assumed): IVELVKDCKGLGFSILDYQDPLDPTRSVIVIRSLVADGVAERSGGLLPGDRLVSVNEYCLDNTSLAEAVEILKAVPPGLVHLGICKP

[32] = target: DVL1 PDZ (Homo sapiens, UniProt O14640); assay: Holdup assay; details: sheet PPI_convert; read-out: affinity to PDZ DVL1 (converted)
Chain of DVL1 PDZ (O14640 251-323 limits assumed): as the sequence (O14641 267-339 limits assumed) above, with K8R, Y9H, N10H, E22D, M57V, D73E counted along it

[33] = target: CARD14 PDZ (Homo sapiens, UniProt Q9BXL6); assay: Holdup assay; details: sheet PPI_convert; read-out: affinity to PDZ CARD14 (converted)
Chain of CARD14 PDZ (Q9BXL6 568-658 limits assumed): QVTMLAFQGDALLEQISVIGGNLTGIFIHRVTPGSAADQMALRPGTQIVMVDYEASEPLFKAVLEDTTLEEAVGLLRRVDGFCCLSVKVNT

[34] = target: DLG5_2 PDZ (Homo sapiens, UniProt Q8TDM6); assay: Holdup assay; details: sheet PPI_convert; read-out: affinity to PDZ DLG5_2 (converted)
Chain of DLG5_2 PDZ (Q8TDM6 705-796 limits assumed): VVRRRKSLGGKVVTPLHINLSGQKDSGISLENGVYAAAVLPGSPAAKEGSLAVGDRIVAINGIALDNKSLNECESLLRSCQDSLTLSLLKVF

Chain of SHANK1 PDZ (Q9Y566 663-757 limits assumed): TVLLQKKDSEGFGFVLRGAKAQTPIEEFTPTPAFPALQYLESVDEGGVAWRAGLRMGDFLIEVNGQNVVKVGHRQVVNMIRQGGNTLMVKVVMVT
Chain of AHNAK1 PDZ (Q09666 9-90 limits assumed): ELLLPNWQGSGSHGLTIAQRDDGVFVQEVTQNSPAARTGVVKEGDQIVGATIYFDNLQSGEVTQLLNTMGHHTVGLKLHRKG

RHTTSTETAV [HPV30-E6]
Kd [1]: 186 µM
Kd [2]: 191 µM
Kd [3]: 11.5 µM
Kd [4]: 3.89 µM
Kd [5]: 64.6 µM
Kd [6]: 19.1 µM
Kd [7]: 14.5 µM
Kd [8]: 2.34 µM
Kd [9]: 4.47 µM
Kd [10]: 219 µM
Kd [11]: 178 µM
Kd [12]: 83.2 µM
Kd [13]: 6.76 µM
Kd [14]: 20 µM
Kd [15]: 58.9 µM
Kd [16]: 3.55 µM
Kd [17]: 44.7 µM
Kd [18]: 9.55 µM
Kd [19]: 110 µM
Kd [20]: 214 µM
Kd [21]: 40.7 µM
Kd [22]: 72.4 µM
Kd [23]: 85.1 µM
Kd [24]: 174 µM
Kd [25]: 64.6 µM
Kd [26]: 3.02 µM
Kd [27]: 21.9 µM
Kd [28]: 18.6 µM
Kd [29]: 110 µM

RTRQRNETQV [HPV51-E6]
Kd [3]: 105 µM
Kd [4]: 7.94 µM
Kd [5]: 145 µM
Kd [30]: 25.7 µM
Kd [7]: 8.71 µM
Kd [8]: 7.41 µM
Kd [13]: 1.55 µM
Kd [14]: 7.94 µM
Kd [31]: 398 µM
Kd [15]: 389 µM
Kd [16]: 10.2 µM
Kd [17]: 17.8 µM
Kd [32]: 13.8 µM
Kd [19]: 234 µM
Kd [21]: 1.17 µM
Kd [33]: 45.7 µM
Kd [22]: 191 µM
Kd [23]: 39.8 µM
Kd [34]: 23.4 µM
Kd [26]: 5.37 µM
Kd [27]: 12.3 µM

— paper PMC9482650, “Quantitative fragmentomics allow affinity mapping of interactomes” (Nature Communications, 2022)
